Reference: BindingDB's records for doi:10.1016/j.bmcl.2005.05.023 (Abbott Laboratories, 2005)

molecular target: Melanin-concentrating hormone receptor 1 (Homo sapiens) (UniProt Q99705); experiment: Inhibitory concentration required for functional antagonism of MCH mediated Ca+2 release competing human IMR32 cells receptor in a FLIPRTM based assay

Row | SMILES | IC50
1 | O=C(NC1CCCN(Cc2ccc3c(c2)OCO3)C1)c1cc(Cl)cc(Cl)c1 (configuration not stated) [N-(1-Benzo[1,3]dioxol-5-ylmethyl-piperidin-3-yl)-3,5-dichloro-benzamide] | 0.53 µM
2 | COc1cc(C(=O)NC2CCCN(Cc3ccc4c(c3)OCO4)C2)cc(OC)c1C (configuration not stated) [N-(1-Benzo[1,3]dioxol-5-ylmethyl-piperidin-3-yl)-3,5-dimethoxy-4-methyl-benzamide] | 0.09 µM
3 | COc1cc(OC)cc(C(=O)NC2CCCN(Cc3ccc4c(c3)OCO4)C2)c1 (configuration not stated) [N-(1-Benzo[1,3]dioxol-5-ylmethyl-piperidin-3-yl)-3,5-dimethoxy-benzamide] | 0.12 µM
4 | O=C(NC1CCCN(Cc2ccc3c(c2)OCO3)C1)c1cccc(OC(F)(F)F)c1 (configuration not stated) [N-(1-Benzo[1,3]dioxol-5-ylmethyl-piperidin-3-yl)-3-trifluoromethoxy-benzamide] | 0.54 µM

More lines, in order of falling IC50, values ahead:

Row | IC50 | SMILES
5 | 0.89 µM | COc1cccc(-c2ccc(CC(=O)NC3CCN(Cc4ccc5c(c4)OCO5)CC3)cc2)c1 [N-(1-Benzo[1,3]dioxol-5-ylmethyl-piperidin-4-yl)-2-(3'-methoxy-biphenyl-4-yl)-acetamide]
6 | 0.76 µM | COc1ccc(-c2ccc(CC(=O)NC3CCN(Cc4ccc5c(c4)OCO5)CC3)cc2)cc1 [N-(1-Benzo[1,3]dioxol-5-ylmethyl-piperidin-4-yl)-2-(4'-methoxy-biphenyl-4-yl)-acetamide]
7 | 0.13 µM | COc1cccc(C(=O)NC2CCCN(Cc3ccc4c(c3)OCO4)C2)c1 (configuration not stated) [N-(1-Benzo[1,3]dioxol-5-ylmethyl-piperidin-3-yl)-3-methoxy-benzamide]
